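Interpolation was linear, between the two tested concentrations surrounding the appropriate level; five concentrations were tested over 48 hours in 96-well plates. GI50 is the concentration that inhibits growth by half. At the TGI there is no net growth.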 A value given as a limit tells only on which side of the number the result lay.

Some test systems named below: UO-31 renal; RPMI-8226 leukemia; OVCAR-8 ovarian; A549 NSCLC; RXF 393 renal; NCI-H23 lung; HOP-92 NSCLC; MDA-MB-231 breast.
Holding throughout (experiment): NCI tumour cell line growth inhibition, 48 h

`CCOC(=O)C#Cc1c(C(=O)OCC)nnn1Cc1ccc([N+](=O)[O-])cc1`: the GI50 in the assay on UO-31 renal is 1.75 µM; with RPMI-8226 leukemia, 2.8 µM; with OVCAR-8 ovarian, 3.72 µM; in the assay on A549 NSCLC, 20.6 µM; in the assay with RXF 393 renal it was 1.89 µM; in the assay on NCI-H23 lung it was 8.2 µM. For the same compound, the GI50 is 2.22 µM in the assay on HOP-92 NSCLC and 3.25 µM in the assay with MDA-MB-231 breast. Further, the TGI in the assay with UO-31 renal amounted to 3.78 µM; with RPMI-8226 leukemia it was 7.37 µM; in the assay with OVCAR-8 ovarian it was 11.1 µM; with A549 NSCLC, 34.8 µM; in the assay with RXF 393 renal, 3.52 µM; in the assay with NCI-H23 lung, 26.9 µM. Besides, the TGI with HOP-92 NSCLC stood at 5.35 µM; in the assay with MDA-MB-231 breast, 9.14 µM.

`CCOC(=O)C1=C(C)N(Cc2ccc(Cl)cc2Cl)C2(O)C=CC(=O)C3=C(O)c4ccccc4C(=O)C312` (configuration not stated): the GI50 was 3.29 µM with RPMI-8226 leukemia; 7.17 µM in the assay with OVCAR-8 ovarian; 9.35 µM in the assay with A549 NSCLC; 11.1 µM with RXF 393 renal; 3.61 µM in the assay with NCI-H23 lung; 1.23 µM with HOP-92 NSCLC. Besides, the GI50 with MDA-MB-231 breast was 3.96 µM. Further, the TGI with RPMI-8226 leukemia was 13 µM; in the assay on OVCAR-8 ovarian, 91.2 µM; in the assay on A549 NSCLC, > 100 µM; in the assay on RXF 393 renal, 66.5 µM; in the assay with NCI-H23 lung, 16.1 µM; in the assay on HOP-92 NSCLC, 5.48 µM. In addition, the TGI with MDA-MB-231 breast came out at 12.8 µM.

On to `CCCN(CCC)c1ccc(/C=N/NC(=O)c2cccnc2)c(OC)c1`, for which the GI50 in the assay on UO-31 renal was 17.4 µM; with RPMI-8226 leukemia, 34.5 µM; with OVCAR-8 ovarian, 29.9 µM; in the assay with A549 NSCLC, 26.6 µM; with RXF 393 renal it was 28.7 µM; in the assay with NCI-H23 lung, 26.1 µM. Further, the GI50 with HOP-92 NSCLC was 13.4 µM. Also, the TGI is 71.6 µM in the assay with UO-31 renal; > 100 µM in the assay with RPMI-8226 leukemia; > 100 µM with OVCAR-8 ovarian; > 100 µM with A549 NSCLC; 84.8 µM in the assay on RXF 393 renal; > 100 µM in the assay with NCI-H23 lung. This compound returned a TGI in the assay on HOP-92 NSCLC of 61.8 µM.

On to `Nc1ccc(-c2cccs2)cc1NC(=O)c1ccc(CCCC(=O)Nc2ccc(C3CC3N)cc2)cc1` (configuration not stated), for which the GI50 was 23.3 µM with UO-31 renal, 1.65 µM in the assay on OVCAR-8 ovarian, 2.45 µM in the assay with RXF 393 renal and 11 µM with HOP-92 NSCLC. The TGI was > 100 µM in the assay with UO-31 renal, 4.48 µM in the assay on OVCAR-8 ovarian, 30 µM in the assay on RXF 393 renal and > 100 µM in the assay on HOP-92 NSCLC.

Consider `CCCCCCCCCCCCCCCCCCOCC(CCP(=O)(CP(=O)(O)O)Oc1ccccc1)OCCCCCCCCCCCCCCCCCC` (configuration not stated), for which the TGI in the assay with RPMI-8226 leukemia, in the assay on OVCAR-8 ovarian, in the assay with A549 NSCLC, with RXF 393 renal, in the assay on NCI-H23 lung and with HOP-92 NSCLC was > 100 µM in each case. Moreover, the TGI in the assay with MDA-MB-231 breast was > 100 µM.

For the compound `O=C(NO)[C@@H](Cc1ccccc1)NS(=O)(=O)c1ccc(-c2ccccc2)cc1`, the GI50 in the assay on UO-31 renal is 13.2 µM; in the assay on OVCAR-8 ovarian, 22.5 µM; with A549 NSCLC, > 25 µM; in the assay on NCI-H23 lung it was > 25 µM; in the assay on HOP-92 NSCLC it was 4.7 µM; in the assay with MDA-MB-231 breast, > 25 µM. Moreover, the TGI is > 25 µM in the assay on UO-31 renal; > 25 µM with OVCAR-8 ovarian; > 25 µM in the assay with A549 NSCLC; > 25 µM in the assay with NCI-H23 lung; 20.9 µM with HOP-92 NSCLC; > 25 µM with MDA-MB-231 breast.

On to `CC(C(N)C(=O)NC(C(=O)O)C1OC(n2ccc(=O)[nH]c2=O)C(O)C1O)C(O)c1ccc(O)cn1` (configuration not stated), for which the TGI with UO-31 renal, with RPMI-8226 leukemia, in the assay on OVCAR-8 ovarian, in the assay on A549 NSCLC, with NCI-H23 lung and in the assay with HOP-92 NSCLC was > 100 µM throughout. For the same compound, in the assay on MDA-MB-231 breast, the TGI is > 100 µM.

On to `Oc1c(Cl)cc(Cl)cc1C(c1cc(Cl)cc(Cl)c1O)C(Cl)(Cl)Cl`, for which the GI50 in the assay with RPMI-8226 leukemia was 1.8 µM; in the assay with OVCAR-8 ovarian it was 3.12 µM; with A549 NSCLC, 3.77 µM; in the assay with RXF 393 renal, 2.38 µM; with NCI-H23 lung, 1.45 µM; in the assay with HOP-92 NSCLC it was 1.52 µM. For the same compound, the GI50 in the assay with MDA-MB-231 breast was 1.59 µM. The TGI in the assay with RPMI-8226 leukemia came out at 54.2 µM; in the assay on OVCAR-8 ovarian it was 15.7 µM; in the assay on A549 NSCLC, 14.4 µM; with RXF 393 renal it was 6.66 µM; in the assay with NCI-H23 lung, 5.15 µM; in the assay on HOP-92 NSCLC, 5.94 µM. This compound also gave a TGI in the assay on MDA-MB-231 breast of 4.81 µM.

With `CO/N=C(\COc1ccc2oc(-c3ccccc3)cc(=O)c2c1)c1ccc(OC)cc1`, the GI50 is 22.8 µM with UO-31 renal; 27.9 µM in the assay with RPMI-8226 leukemia; 31.8 µM in the assay with OVCAR-8 ovarian; 24.4 µM in the assay on A549 NSCLC; 29 µM in the assay on RXF 393 renal; 32.4 µM with NCI-H23 lung. For the same compound, the GI50 with MDA-MB-231 breast was 22 µM. Further, the TGI in the assay on UO-31 renal is 58.5 µM; with RPMI-8226 leukemia, 81.9 µM; in the assay on OVCAR-8 ovarian, > 100 µM; in the assay with A549 NSCLC it was 73 µM; with RXF 393 renal it was 97.5 µM; in the assay with NCI-H23 lung, > 100 µM. The TGI in the assay on MDA-MB-231 breast is 45.2 µM.

For the compound `CN(C)CCNc1c2ccccc2nc2oc3ccccc3c12`, the GI50 with UO-31 renal was 4.91 µM; with OVCAR-8 ovarian it was 6.66 µM; with A549 NSCLC, 4.75 µM; in the assay on MDA-MB-231 breast, 6.47 µM. In addition, the TGI with UO-31 renal was 46.9 µM; in the assay with OVCAR-8 ovarian, > 100 µM; with A549 NSCLC, 36 µM; in the assay on MDA-MB-231 breast, 27.2 µM.

For `Clc1ccccc1CNc1c2ccccc2nc2ccccc12`, the GI50 with UO-31 renal is 1.35 µM; with OVCAR-8 ovarian, 2.41 µM; in the assay with A549 NSCLC it was 2.21 µM; in the assay on RXF 393 renal it was 1.29 µM; with NCI-H23 lung, 1.67 µM; in the assay on HOP-92 NSCLC, 1.91 µM. Besides, in the assay on MDA-MB-231 breast, the GI50 is 2.39 µM. Moreover, the TGI in the assay with UO-31 renal worked out at 6.96 µM; in the assay on OVCAR-8 ovarian it was 13.3 µM; in the assay with A549 NSCLC, 10.7 µM; with RXF 393 renal, 4.44 µM; in the assay with NCI-H23 lung, 8.9 µM; in the assay on HOP-92 NSCLC, 8.45 µM. This compound also had a TGI in the assay with MDA-MB-231 breast of 10.2 µM.

Turning to `N#Cc1c(N)nc(N2CCOCC2)c(C#N)c1-c1ccccn1`, the GI50 in the assay on UO-31 renal was > 100 µM; in the assay on RPMI-8226 leukemia, > 50.3 µM; in the assay with OVCAR-8 ovarian, > 100 µM; in the assay on A549 NSCLC, > 100 µM; in the assay with RXF 393 renal it was > 100 µM; in the assay on NCI-H23 lung, > 100 µM. Besides, the GI50 in the assay on HOP-92 NSCLC is > 52.8 µM. In addition, the TGI with UO-31 renal, in the assay with RPMI-8226 leukemia, in the assay on OVCAR-8 ovarian, in the assay on A549 NSCLC, with RXF 393 renal and with NCI-H23 lung was > 100 µM throughout. Moreover, in the assay on HOP-92 NSCLC, the TGI was > 100 µM.
